Source: paper PMC12226733, “Evolution of iGluR ligand specificity, polyamine regulation, and ion selectivity inferred from a placozoan epsilon receptor” (Communications Biology, 2025)
“And” between values parts separate entries of the source, which are not always exact repeats. Equal values may be shown once. Read-outs that look alike come from different tables or passages of the source.

How the values were obtained:
GluE1αA D646A = assay type: cell-based, Trichoplax adhaerens; conditions: […]; for normalized conductance (G-V, Figure 5g), Avg: Na vs Na; for I-V current, Na vs Na, Avg of recordings: Figure 5b
[1] = molecular target: T1, human GluA2 receptor (wildtype) (Homo sapiens, UniProt P42262); assay type: cell-based; conditions: for normalized conductance (G-V, Figure 5g), Avg: Na vs Na
T1 construct: host or cells: CHO-K1

GluA2 D611A + γ2 = molecular target: T2, GluA2 D611A + γ2 (Homo sapiens, UniProt P42262, D611A); test: outside-out patch clamp, block by intracellular spermine, HEK-293T/17 cells; assay type: biochemical; conditions: for Normalized conductance (Gnorm) AMPA D611A + γ2 / Normalized current (Inorm) AMPA D611A + γ2: single recordings and AVG
T2 construct: expressed in transfected cells; host or cells: HEK-293T/17
Experimental: Parallel experiments were carried out in human GluA2 homotetramers bearing equivalent Q/R/N and +4 site mutations to compare the regulation of voltage-dependent polyamine block within the broader context of mammalian receptors. Experimental design remained the same, except for using 10 mM glutamate as the agonist used to evoke membrane currents (Fig. 7a, d, g, and j). […] Their properties were accordingly compared to wildtype GluA2(Q) co-expressed with TARP-γ2.
HEK-293T/17 cells (ATCC) were maintained in MEM supplemented with GlutaMAX and 10% fetal bovine serum (FBS) at 37 °C and 5% CO2. […] Transient transfections were carried out 48 h post-plating using the calcium phosphate precipitation method. After 6–8 hours, cells were washed twice with PBS and maintained in fresh medium. Cells transfected with mammalian GluA2 cDNA (plasmid vector described above) were returned to an incubator at 37 °C for 24–48 hours and cells transfected with Epsilon GluE1αA were incubated at 28 °C for 48–72 hours. In cells co-transfected with TARP-γ2, 30 μM NBQX was included in the medium to minimize AMPAR/auxiliary-induced cytotoxicity. All constructs were co-transfected with a plasmid encoding enhanced green fluorescent protein (eGFP) to identify transfected cells. Electrophysiology responses were recorded from outside-out patches excised from transfected cells. Recording pipettes were composed of borosilicate glass (3 to 6 megaohm, King Precision Glass) coated with dental wax to reduce electrical noise. All recordings were performed using Axopatch 200B amplifier (Molecular Devices, LLC). Current records were filtered at 5 or 10 kHz and sampled at 25–50 kHz. Series resistance (3 to 12 megaohms) was compensated by 95%. Recordings were performed at a range of holding potentials from −100 mV to 100 mV to study polyamine block. Data was acquired using pClamp9 software (Molecular Devices, LLC). All experiments were performed at room temperature. All chemicals were purchased from Sigma-Aldrich, unless otherwise indicated. External solution contained (in mM): 150 NaCl, 5 HEPES, 0.1 CaCl2, 0.1 MgCl, and […], pH 7.3–7.4. […] The osmotic pressure of all solutions was adjusted to 295 to 300 mOsm with sucrose. […] Stocks were thawed on the day of the experiment and used to prepared agonist-containing external solutions. Raw data for all electrophysiology experiments are provided in Supplementary Data 3. Current-voltage (I-V) relationships were fit using Origin 7 (OriginLab) using a ninth order polynomial function to estimate the reversal potential (Vrev).
Agonist-evoked membrane conductance (G) was calculated using the following equation: G=I/(V−Vrev)
Conductance-voltage (G-V) relationships were fit using Origin 7 (OriginLab) with the single permeant blocker model as done previously[46]: G=Gmax/1+[Spm]/Kd Where Gmax is the maximal conductance, [Spm] is the internal Spm concentration, and Kd is the dissociation constant.
Kd is defined as: Kd=koff+kperm/kon=sumofexitrates/bindingrate
And redefined as: Kd=g*exp(V/h)+L*exp(V/k) Where h and k are voltage dependencies of g and L, respectively, and at 0 mV: g=koff/konandL=kperm/kon

T1 sequence (P42262 25-883): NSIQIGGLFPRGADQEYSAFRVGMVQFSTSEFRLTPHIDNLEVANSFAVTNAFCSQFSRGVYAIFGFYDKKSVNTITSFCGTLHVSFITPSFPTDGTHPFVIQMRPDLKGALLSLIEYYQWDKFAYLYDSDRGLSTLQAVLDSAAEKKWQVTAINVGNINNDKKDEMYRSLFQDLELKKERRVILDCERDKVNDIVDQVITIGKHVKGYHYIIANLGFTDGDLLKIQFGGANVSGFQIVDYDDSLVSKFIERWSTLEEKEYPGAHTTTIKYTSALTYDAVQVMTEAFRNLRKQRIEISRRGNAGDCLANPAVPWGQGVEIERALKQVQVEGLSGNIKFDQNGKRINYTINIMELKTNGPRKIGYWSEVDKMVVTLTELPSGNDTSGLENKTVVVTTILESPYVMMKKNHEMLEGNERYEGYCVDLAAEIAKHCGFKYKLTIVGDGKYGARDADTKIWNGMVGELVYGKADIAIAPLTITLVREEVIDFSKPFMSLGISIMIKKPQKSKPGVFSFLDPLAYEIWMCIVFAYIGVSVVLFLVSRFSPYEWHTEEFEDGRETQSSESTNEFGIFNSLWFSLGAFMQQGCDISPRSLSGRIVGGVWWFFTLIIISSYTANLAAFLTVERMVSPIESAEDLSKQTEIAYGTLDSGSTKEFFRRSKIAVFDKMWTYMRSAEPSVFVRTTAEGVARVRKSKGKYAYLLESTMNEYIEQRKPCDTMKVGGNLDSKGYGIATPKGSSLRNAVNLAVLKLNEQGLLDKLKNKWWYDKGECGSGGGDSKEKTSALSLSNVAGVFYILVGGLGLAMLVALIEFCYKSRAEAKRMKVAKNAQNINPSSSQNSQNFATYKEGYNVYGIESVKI
T2 sequence (P42262 25-883 D611A): as the sequence (P42262 25-883) above, with D587A counted along it
T2 sequence (Q9Y698 whole entry partner): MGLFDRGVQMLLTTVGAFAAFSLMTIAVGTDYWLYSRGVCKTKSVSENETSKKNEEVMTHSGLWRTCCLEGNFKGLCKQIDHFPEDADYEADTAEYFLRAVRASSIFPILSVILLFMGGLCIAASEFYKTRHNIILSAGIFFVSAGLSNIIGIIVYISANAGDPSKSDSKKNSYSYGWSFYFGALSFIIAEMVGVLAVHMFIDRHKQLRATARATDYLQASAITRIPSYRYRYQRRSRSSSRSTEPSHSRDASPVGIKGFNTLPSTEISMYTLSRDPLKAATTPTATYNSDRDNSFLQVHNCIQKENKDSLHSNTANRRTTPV

[Na+] [Na]
normalized conductance (G-V, Figure 5g), Avg (GluE1αA D646A; Vm 0.00): 0.81
normalized conductance (G-V, Figure 5g), Avg (GluE1αA D646A; Vm 20.00): 0.80
normalized conductance (G-V, Figure 5g), Avg (GluE1αA D646A; Vm 40.00): 0.77
normalized conductance (G-V, Figure 5g), Avg (GluE1αA D646A; Vm 60.00): 0.74
normalized conductance (G-V, Figure 5g), Avg (GluE1αA D646A; Vm 80.00): 0.78
normalized conductance (G-V, Figure 5g), Avg (GluE1αA D646A; Vm -20.00): 0.83
normalized conductance (G-V, Figure 5g), Avg (GluE1αA D646A; Vm -40.00): 0.84
normalized conductance (G-V, Figure 5g), Avg (GluE1αA D646A; Vm -60.00): 0.88
normalized conductance (G-V, Figure 5g), Avg (GluE1αA D646A; Vm -80.00): 1.00
I-V current, Na vs Na, Avg of recordings (GluE1αA D646A; Vm 0.00): -0.000461
I-V current, Na vs Na, Avg of recordings (GluE1αA D646A; Vm 20.00): 0.18
I-V current, Na vs Na, Avg of recordings (GluE1αA D646A; Vm 40.00): 0.36
I-V current, Na vs Na, Avg of recordings (GluE1αA D646A; Vm 60.00): 0.53
I-V current, Na vs Na, Avg of recordings (GluE1αA D646A; Vm 80.00): 0.69
I-V current, Na vs Na, Avg of recordings (GluE1αA D646A; Vm -20.00): -0.18
I-V current, Na vs Na, Avg of recordings (GluE1αA D646A; Vm -40.00): -0.37
I-V current, Na vs Na, Avg of recordings (GluE1αA D646A; Vm -60.00): -0.56
I-V current, Na vs Na, Avg of recordings (GluE1αA D646A; Vm -80.00): -0.76
normalized conductance (G-V, Figure 5g), Avg ([1]; Vm 0.00): 0.0219
normalized conductance (G-V, Figure 5g), Avg ([1]; Vm 20.00): 0.0142
normalized conductance (G-V, Figure 5g), Avg ([1]; Vm 40.00): 0.0218
normalized conductance (G-V, Figure 5g), Avg ([1]; Vm 60.00): 0.11
normalized conductance (G-V, Figure 5g), Avg ([1]; Vm 80.00): 0.29
normalized conductance (G-V, Figure 5g), Avg ([1]; Vm -20.00): 0.10
normalized conductance (G-V, Figure 5g), Avg ([1]; Vm -40.00): 0.41
normalized conductance (G-V, Figure 5g), Avg ([1]; Vm -60.00): 0.86
normalized conductance (G-V, Figure 5g), Avg ([1]; Vm -80.00): 1.00
I-V current, Na vs Na, Avg of recordings ([1]; Vm 0.00, Figure 5b): -0.00449
I-V current, Na vs Na, Avg of recordings ([1]; Vm 20.00, Figure 5b): 0.00351
I-V current, Na vs Na, Avg of recordings ([1]; Vm 40.00, Figure 5b): 0.00517
I-V current, Na vs Na, Avg of recordings ([1]; Vm 60.00, Figure 5b): 0.02
I-V current, Na vs Na, Avg of recordings ([1]; Vm 80.00, Figure 5b): 0.08
I-V current, Na vs Na, Avg of recordings ([1]; Vm -20.00, Figure 5b): -0.0114
I-V current, Na vs Na, Avg of recordings ([1]; Vm -40.00, Figure 5b): -0.0751
I-V current, Na vs Na, Avg of recordings ([1]; Vm -60.00, Figure 5b): -0.30
I-V current, Na vs Na, Avg of recordings ([1]; Vm -80.00, Figure 5b): -0.69

NCCCNCCCCNCCCN [spermine]
Normalized conductance (Gnorm) AMPA D611A + γ2 (GluA2 D611A + γ2; 0 mV): 0.81 and 0.75 and 0.86 and 0.99 and 0.85
Normalized conductance (Gnorm) AMPA D611A + γ2 (GluA2 D611A + γ2; 10 mV): 0.83 and 0.76 and 0.89 and 0.84
Normalized current (Inorm) AMPA D611A + γ2 (GluA2 D611A + γ2; 10 mV): 0.05 and 0.0569 and 0.06 and 0.0738
Normalized conductance (Gnorm) AMPA D611A + γ2 (GluA2 D611A + γ2; 20 mV): 0.86 and 0.79 and 0.92 and 0.87
Normalized current (Inorm) AMPA D611A + γ2 (GluA2 D611A + γ2; 20 mV): 0.15 and 0.14 and 0.17
Normalized conductance (Gnorm) AMPA D611A + γ2 (GluA2 D611A + γ2; 30 mV): 0.92 and 0.81 and 0.94 and 0.90
Normalized current (Inorm) AMPA D611A + γ2 (GluA2 D611A + γ2; 30 mV): 0.26 and 0.22 and 0.25 and 0.27
Normalized conductance (Gnorm) AMPA D611A + γ2 (GluA2 D611A + γ2; 40 mV): 0.93 and 0.87 and 0.95 and 0.91
Normalized current (Inorm) AMPA D611A + γ2 (GluA2 D611A + γ2; 40 mV): 0.36 and 0.33 and 0.32 and 0.37 and 0.35
Normalized conductance (Gnorm) AMPA D611A + γ2 (GluA2 D611A + γ2; 50 mV): 0.97 and 0.91 and 0.99 and 0.92 and 0.95
Normalized current (Inorm) AMPA D611A + γ2 (GluA2 D611A + γ2; 50 mV): 0.49 and 0.44 and 0.47 and 0.45 and 0.46
Normalized conductance (Gnorm) AMPA D611A + γ2 (GluA2 D611A + γ2; 60 mV): 0.94 and 0.96 and 0.99
Normalized current (Inorm) AMPA D611A + γ2 (GluA2 D611A + γ2; 60 mV): 0.57 and 0.55 and 0.56
Normalized conductance (Gnorm) AMPA D611A + γ2 (GluA2 D611A + γ2; 70 mV): 0.98 and 1.00 and 0.92 and 0.99 and 0.97
Normalized current (Inorm) AMPA D611A + γ2 (GluA2 D611A + γ2; 70 mV): 0.71 and 0.68 and 0.62 and 0.67
Normalized conductance (Gnorm) AMPA D611A + γ2 (GluA2 D611A + γ2; 80 mV): 0.99 and 0.97 and 1.04 and 1.00
Normalized current (Inorm) AMPA D611A + γ2 (GluA2 D611A + γ2; 80 mV): 0.82 and 0.76 and 0.81 and 0.78 and 0.79
Normalized conductance (Gnorm) AMPA D611A + γ2 (GluA2 D611A + γ2; 90 mV): 1.00 and 0.88 and 0.98 and 0.95
Normalized current (Inorm) AMPA D611A + γ2 (GluA2 D611A + γ2; 90 mV): 0.94 and 0.78 and 0.87 and 0.86
Normalized conductance (Gnorm) AMPA D611A + γ2 (GluA2 D611A + γ2; 100 mV): 0.97 and 0.96 and 1.00 and 0.98
Normalized current (Inorm) AMPA D611A + γ2 (GluA2 D611A + γ2; 100 mV): 1.02 and 0.95 and 0.99
Normalized conductance (Gnorm) AMPA D611A + γ2 (GluA2 D611A + γ2; -10 mV): 0.83 and 0.80 and 0.82 and 0.89
Normalized conductance (Gnorm) AMPA D611A + γ2 (GluA2 D611A + γ2; -20 mV): 0.81 and 0.87 and 0.82 and 0.91 and 0.85
Normalized conductance (Gnorm) AMPA D611A + γ2 (GluA2 D611A + γ2; -30 mV): 0.82 and 0.87 and 0.93 and 0.91 and 0.88
Normalized conductance (Gnorm) AMPA D611A + γ2 (GluA2 D611A + γ2; -40 mV): 0.83 and 0.87 and 0.84 and 0.92
Normalized conductance (Gnorm) AMPA D611A + γ2 (GluA2 D611A + γ2; -50 mV): 0.86 and 0.81 and 1.01 and 0.95 and 0.91
Normalized conductance (Gnorm) AMPA D611A + γ2 (GluA2 D611A + γ2; -60 mV): 0.89 and 0.96 and 0.95 and 0.94
Normalized conductance (Gnorm) AMPA D611A + γ2 (GluA2 D611A + γ2; -70 mV): 0.89 and 0.92 and 0.95 and 0.91
Normalized conductance (Gnorm) AMPA D611A + γ2 (GluA2 D611A + γ2; -80 mV): 0.89 and 0.86 and 0.96 and 0.90
Normalized conductance (Gnorm) AMPA D611A + γ2 (GluA2 D611A + γ2; -90 mV): 0.86 and 0.94 and 0.98 and 0.93
Normalized conductance (Gnorm) AMPA D611A + γ2 (GluA2 D611A + γ2; -100 mV): 0.96 and 0.95 and 0.98
Normalized current (Inorm) AMPA D611A + γ2 (GluA2 D611A + γ2; -100 mV): -1.00
h, voltage dependency of block onset (GluA2 D611A + γ2; GluA2 D611A + γ2): −58.8 ± 8.8 mV
k, voltage dependency of block relief (GluA2 D611A + γ2; GluA2 D611A + γ2): 20.8 ± 3.7 mV
Kd (GluA2 D611A + γ2; GluA2 D611A + γ2, 30 µM internal Spm, 10 mM glutamate, read-out: Kd(0mV)): 169 ± 54.6 µM
